The record followed here is patent US20120309798A1, “Tumour Treatment Agents and Method” (Vivolux AB, priority 2009, published 2012).

Usually pIC50 stands for the negative decadic logarithm of the IC50, by convention in mol/L. Higher therefore signals a low IC50.

For the test, the system named is CLL (Chronic Lymphocytic Leukemia) patient tumor cells. The test can be described thus: FMCA, patient tumor samples, CLL. The conditions noted are these: Homo sapiens, range over n=9 samples. Format: cell-based. The text has this:
Cell culture. Patient tumor samples (98) and preparations (4) of normal peripheral blood mononuclear cells (PBMC), detailed in Table 1, were used to determine the activity of VLX50 and, for comparison, six other cytotoxic drugs chosen to represent different mechanistic classes.
The tumor samples were obtained by bone marrow/peripheral blood sampling, routine surgery or diagnostic biopsy. Leukemic cells and PBMCs were isolated by 1.077 g ml-1 Ficoll-Paque centrifugation (Larsson et al., 1992). Tumor tissue from solid tumor samples was minced into small pieces and tumor cells were isolated by collagenase dispersion followed by Percoll density gradient centrifugation (Csoka et al., 1994). […] Cell viability was determined by trypan blue exclusion test and the proportion of tumor cells in the preparation was judged by inspection of May-Grunvald-Giemsa stained cytospin slides (FIG. 1a). […]
Fluorometric Microculture Cytotoxicity Assay. The Fluorometric Microculture Cytotoxicity Assay, FMCA, described in detail previously (Lindhagen et al., 2008), is based on measurement of fluorescence generated from hydrolysis of fluorescein diacetate (FDA) to fluorescein by cells with intact plasma membranes. […] Quality criteria for a successful assay included a mean coefficient of variation of less than 30% in the control and a fluorescence signal in control wells of more than 5 times the blank. […]

pIC50: −log10 of the molar value.

In turn, `COCCCNC(=S)N/N=C\c1ccccn1` [VLX50, N1-(3-methoxypropyl)-2-(pyridylmethylidene)-hydrazine-1-carbothioamide] had a negative-log IC50 (pIC50) of 5.03 to 7.46.
